The values below come from patent US12415776B2, “Lipid nanoparticle compositions for delivering circular polynucleotides” (Orna Therapeutics, Inc., priority 2021, dated 2025).

Test [1] has as its system splenic immune cells (T cells, myeloid cells, B cells, NK cells). Description: mOX40L expression in splenic immune cells after IV LNP-circular RNA (flow cytometry). It counts as in vivo, C57BL/6 mice. The note with it: 1 mg/kg intravenously, 24 hours, IL:P 5.7, 50:10:38.5:1.5. Here is the method: The ionizable lipid:helper lipid:cholesterol:PEG-lipid molar ratio of these LNPs was 50:10:38.5:1.5. Dialysis of the LNPs were performed using PBS. C57BL/6 female mice (6-8 weeks, n=4) were dosed at either LNP comprising Lipid 1 of Table […] or the Lipid 15 of Table 10f at 1 mg/kg intravenously.

The next test deals with splenic T cells. In words: mOX40L expression in splenic T cells after IV LNP-circular RNA. It counts as in vivo, C57BL/6 mice. The settings on record: 1 mg/kg intravenously, 24 hours. As to the method: The ionizable lipid:helper lipid:cholesterol:PEG-lipid molar ratio of these LNPs was 50:10:38.5:1.5. C57BL/6 female mice (6-8 weeks, n=4) were dosed at 1 mg/kg intravenously. At 24 hours, the spleen from the mice were collected for flow cytometry analysis, tested for weight loss and measured for serum alanine aminotransferase (ALT) after blood collection. mOX40L expression was measured in splenic T cells.

With `CCCCCCCCCCCCC(O)CN(CCCO)CCCCCCCC(=O)OC(CCCCCCCC)CCCCCCCC` (centres unmarked) [Lipid 1 of Table 10e], in test [1], the “mOX40L transfection in splenic immune cells” value was “comparable or higher levels of mOX40L transfection”. Also, the “mOX40L expression in splenic T cells” value in the test on splenic T cells is reported as “resulted in expression of mOX40L in splenic T cells”.
